What was measured:
β2AR [1] = target: T1, β2AR (Homo sapiens, UniProt P07550); assay: cAMP FRET sensor (TEpacVV) agonist assay in HEK 293 cells; assay type: cell-based; conditions: for intracellular cAMP level: addition of probe to the cells, 60 min at room temperature (Suppl. Fig. 13)
Procedure: Upon cAMP binding, the sensor undergoes a conformational change resulting in a decrease of the FRET efficiency between two fluorescent proteins: mTurquoise - a version of cyan fluorescent protein (CFP) as the donor, and yellow fluorescent protein (YFP) as the acceptor (Fig. 3a).
The intracellular cyclic adenosine monophosphate (cAMP) levels were determined with HEK 293 cells expressing a 3′,5′-cAMP FRET sensor. The cells were a generous gift from Ruud Hovius from École poly-technique fédérale de Lausanne (EPFL). The cAMP production induces a conformational switch in ^TEpac^VV and causes a decrease in FRET efficiency, i.e. a decreased energy transfer between the two fluorescent proteins (donor mTurquoise and acceptor YFP)[32].
The culture was maintained by subculturing the cells every 4 to 5 days using the standard trypsinization procedure. Before measurements, cells were trypsinated and transferred in a 96-well glass bottom plate (MatTek Corporation; Cat. No. P96GC-1.5–5-F) to contain 10,000–30,000 cells per well in 200 µL of DMEM media. After 24 h incubation in 5% CO2 at 37 °C, the cells were washed with HBSS pH 7.2 (200 µL), and the wells were filled with 200 µL HBSS. The DMSO stock solutions of the fluorescent probes were diluted 5,000 times in HBSS and used in experiments. […] The fluorescent ligand solutions of different concentrations in HBSS were premixed with the isoprenaline solution. 50 µL of a final solution was added to each well and the measurement was started upon addition and continued for 1 h in 10 min intervals between the readouts (inclusive).
The ligands were added using an automated pipette to initiate the sensor response. FRET readout from the cAMP sensor was performed on a multiwell plate reader Spark 20 M (Tecan) at room temperature (25 °C). Fluorescence readout amplitudes were calculated from time series for different ligand concentrations, following background subtraction (media only). […] Data were derived from 3 independent experiments and each independent experiment was performed in triplicate.
Sensor response R(CFP/FRET) was calculated using (1):1 R(CFP/FRET)=(FimTurquoise−FbkgmTurquoise)/(FiFRET−FbkgFRET) where F i ^mTurquoise – mTurquoise fluorescence intensity in the wells with cells; F bkg ^mTurquoise - mTurquoise fluorescence intensity in the control wells without cells; F i ^FRET – FRET signal intensity in the wells with cells; F bkg ^FRET – FRET signal intensity in the control wells without cells. For every result, R(CFP/FRET) ratio was normalized to the R(CFP/FRET) response of DMSO sample.

[2] = pH dependence of ligand fluorescence; assay type: physicochemical
Procedure: pH dependence of βAR ligands fluorescence were recorded on a multiwell plate reader Spark 20 M (Tecan) in 96-well glass bottom plates (MatTek Corporation; Cat. No. PBK96G-1.5-5-F) in PBS solutions (pH 4.7–8.0) at room temperature (25 °C). The 100x stock solutions of ligands were prepared in DMSO.

β2AR [3] = target: T1, β2AR; assay: Staining and competitive binding in CAPAN-1 cells at endogenous β2AR expression; assay type: cell-based; conditions: for receptor staining: 100 nM probe; for competitive binding with excess unlabeled ligand: 100 nM probe (5 nM ab118171) with 10 µM BI-167107 or carazolol
Procedure: To study the selectivity of β2AR staining at the endogenous expression levels, which are much lower compared to those in transiently β2AR expressing U2OS cells, we tested the performance of BI-167107 probes in pancreatic CAPAN-1 cells (Fig. 7c–f). […] Low density of β2AR in the plasma membrane of CAPAN-1 cells allowed us to measure of the lateral resolution in the STED images. When the cells were incubated with 100 nM BI-PEG-KK114 (18) ligand, we observed two-fold improvement in the resolution resulting in apparent structures of ~100 nm (Fig. 7d; Supplementary Table 4).
For staining of CAPAN-1 cells, fluorescent probes or mixtures of a probe and a competitor were incubated in McCoy’s 5a Medium Modified supplemented with 10% fetal bovine serum (FBS) for 30–40 min at room temperature. Afterwards, the samples were washed two times with HBSS, and cells were imaged in DMEM (Thermo Fisher Scientific) supplemented with GlutaMAX-1 (Thermo Fisher Scientific) and 10% fetal bovine serum (FBS). Imaging performed on Leica SP8 (Leica Microsystems) or Abberior STED (Abberior Instruments GmbH) microscopes.

β2AR [4] = target: T1, β2AR; assay: TR-FRET receptor-ligand saturation binding assay, Tag-lite β2AR cells; conditions: for binding selectivity β2AR over β1AR: TR-FRET assay, ratio of Kd app; for Kd: β2AR, 2 h at room temperature, read-out: Kd app
Procedure: To confirm whether the affinity of carazolol-KK114 (24) is sufficient for the intended imaging experiments and to evaluate its β2/β1AR selectivity, we performed a TR-FRET assay in Tag-lite β1AR or β2AR transfected cells (Cisbio) labeled with Tb^3+ cryptate (Lumi4-Tb) (Fig. 3c)[39]. […] (Fig. 3d, Supplementary Fig. 5b). The high affinities of both fluorescent ligands enabled the imaging experiments.
K d determination was performed on Tag-lite β1AR (Cisbio, Cat. No. C1TT1BETA1) or β2AR (Cisbio, Cat. No. C1TT1BETA2) Tb^3+ cryptate labeled transfected cells. The β1AR or β2AR cells labeled with SNAP-Terbium interact with the specific ligand labeled with the corresponding fluorophore. The fraction of bound ligand is proportional to the FRET signal. Donor Tb^3+ cryptate: exc. 340 nm, em. 490 nm, 546 nm, 583 nm, 620 nm; acceptor KK114: exc. 630 nm, em. 655 nm. The cells were thawed and suspended in 4.5 ml Tag-lite buffer (Cisbio, Cat. No. LABMED) according to the product information and transferred to half-area white polystyrene 96 well plates (Sigma, Cat. No. CLS3693) by 20 µl per well. 20 µl of a fluorescent probe or control compound in Tag-lite buffer was added to each well and incubated for 2 h at room temperature (20 °C) before readout. FRET readout was performed on a multiwell plate reader Spark 20 M (Tecan) at room temperature. […] All probe and control compound dilutions were prepared in DMSO, so that the final DMSO concentration was kept constant throughout the titration series. The ratio of the acceptor and donor emission signals was calculated for each individual well using equation (3):3 Ratio=Signal655nm−BackgroundSignal/Signal620nm−BackgroundSignal
Luminescence background signal was measured in wells containing 40 µl of Tag-lite buffer only. Specific binding was calculated by subtracting nonspecific binding ratio from total binding ratio at each fluorescent ligand concentration. K d ^app is determined by fitting data using GraphPad Prism 6 to one site specific binding with Hill slope equation (4):4 Specificsingalratio=A∗[probe]^h/(Kdapp)^h+[probe]^h
A is amplitude of specific signal ratio, [probe] - probe concentration, K d ^app - the ligand concentration needed to achieve a half-maximum binding at equilibrium, h - the Hill slope.

T1 sequence (P07550 whole entry): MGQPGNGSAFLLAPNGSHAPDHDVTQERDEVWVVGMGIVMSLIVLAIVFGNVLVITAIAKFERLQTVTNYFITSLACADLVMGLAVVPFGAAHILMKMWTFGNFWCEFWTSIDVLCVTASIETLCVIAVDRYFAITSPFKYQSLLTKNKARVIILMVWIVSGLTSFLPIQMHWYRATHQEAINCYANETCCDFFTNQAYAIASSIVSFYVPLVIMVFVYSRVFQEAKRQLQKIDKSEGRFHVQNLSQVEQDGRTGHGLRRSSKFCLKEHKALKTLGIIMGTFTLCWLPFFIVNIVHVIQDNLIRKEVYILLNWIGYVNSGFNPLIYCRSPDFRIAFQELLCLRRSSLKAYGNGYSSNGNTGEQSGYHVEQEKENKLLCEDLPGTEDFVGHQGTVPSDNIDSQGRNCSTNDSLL

| Compound | EC50 (β2AR [1]; HEK 293 expressing 3′,5′-cAMP FRET sensor, 30 min incubation, room temperature, read-out: EC50 (mean ± SD)) | intracellular cAMP level (β2AR [1]) | emission intensity decrease ([2]; at pH 8.0) | receptor staining (β2AR [3]) | competitive binding with excess unlabeled ligand (β2AR [3]) | binding selectivity β2AR over β1AR (β2AR [4]) | Kd (β2AR [4]) | fluorescence intensity retained relative to maximal ([2]; pH ~7 versus pH ~5) |
| --- | --- | --- | --- | --- | --- | --- | --- | --- |
| Cc1c(CCC(=O)NCCOCCOCCNC(=O)CCN(C)C(=O)c2c(F)c(F)c(F)c(F)c2C2=c3cc4c5c(c3Oc3c2cc2c6c3CCCN6C(C)(C)C=C2CS(=O)(=O)O)CCC[N+]=5C(C)(C)C=C4CS(=O)(=O)[O-])cccc1CC(C)(C)NCC(O)c1ccc(O)c2c1OCC(=O)N2 (stereo not shown) [BI-PEG-KK114 (18)] | 5.7 ± 2.2 nM | induces intracellular cAMP level increase | 30% | plasma membrane localized receptor staining | no background fluorescence | nine-fold | 7.2 ± 0.6 nM | – |
| CN(CCC(=O)NCCOCCOCCOCCOCCC(=O)NCCC(C)(C)NCC(O)COc1cccc2[nH]c3ccccc3c12)C(=O)c1c(F)c(F)c(F)c(F)c1C1=c2cc3c4c(c2Oc2c1cc1c5c2CCCN5C(C)(C)C=C1CS(=O)(=O)O)CCC[N+]=4C(C)(C)C=C3CS(=O)(=O)[O-] (stereo not shown) [Carazolol-KK114 (24)] | – | did not change | – | plasma membrane localized receptor staining | efficiently displaced | three-fold | 14.7 ± 0.9 nM | about 90% |

Reference: paper PMC5614969, “High-Affinity Functional Fluorescent Ligands for Human β-Adrenoceptors” (Scientific Reports, 2017)
